{
  "source": "paper PMC9228955",
  "about": "“Synthesis, Physicochemical, Labeling and In Vivo Characterization of ^44Sc-Labeled DO3AM-NI as a Hypoxia-Sensitive PET Probe” (Pharmaceuticals, 2022)",
  "key": {"[1]": {"test": "Stability constant of Sc(III) complex by 1H and 45Sc NMR batch samples and pH-potentiometric titration; pSc calculation", "assay_type": "physicochemical", "details": "for pSc (-log[Sc(III)]free): [Sc(III)]tot = 1 × 10^−8 M, [L]tot = 1 × 10^−7 M, pH = 7.4", "description": "The stability constant of the Sc(DO3AM-NI) complex was assessed by ^1H and ^45Sc-NMR studies using samples prepared in the 0.055–0.195 M acid concentration range. […] Absence of protonation and the presence of a ternary hydroxydo species formation with KScL•OH = 10.88(5) were detected at our experimental conditions. The NMR samples contained 3.32 mM ligand, ScCl3 and a constant ionic strength of 0.15 M NaCl. The samples were thermostated at 37 °C, and their ^1H- and ^45Sc-NMR spectra were recorded after 60 days. In order to ensure that the equilibrium in the samples was attained, the ^1H and ^45Sc-NMR measurements were repeated again 90 days later. The spectra were practically identical with the spectra recorded at 60 days (Figures S4 and S5). As expected, the thermodynamic stability constant of the Sc(DO3AM-NI) complex (log KScL = 22.36(4)) was considerably lower than those of Sc(III) complexes formed with DOTA, DTPA or AAZTA ligands (Table 1). A moderate decrease in terms of thermodynamic stability constants was already observed for the complexes of DO3A-monamides formed with Gd(III) ions in comparison to the stability of parent Gd(DOTA)^− chelate. Despite the lower stability constant of the complex, the Sc(III) ion was complexed completely around pH = 2.0 (in a millimolar concentration range, see Figure 2). However, it might be misleading to directly compare the stability constants of the complexes formed by ligands of different basicity (as it depends on the basicity of the ligand); therefore, we calculated and compared the pSc values (which could be treated as conditional constants) for the complexes shown in Table 1 by taking the protonation constants of ligands, the stability constants of the complex species present in solution and the hydrolysis of the Sc(III) ion (according to Ref. [23]: log βSc(OH) = −4.3, log βSc(OH)2 = −9.7, log βSc(OH)3 = −16.1, log βSc(OH)4 = −26.0 and log βSc2(OH)4 = −6.0) into account.\n(§1) The equilibrium measurements were performed at constant ionic strength maintained by 0.15 M NaCl at 37 °C. For determining the protonation constants of DO3AM-NI, two parallel pH-potentiometric titrations were performed with 0.1611 M NaOH in a 5.00 cm^3 sample containing the ligand at the concentration of 2.76 mM. The stability constant of Sc(DO3AM-NI) was assessed by ^1H and ^45Sc NMR in 0.7 mL “batch” samples containing the metal and the ligand at 3.32 mM and different concentrations of strong acid (0.05–0.20 M) aged 90 days (see below). The formation of protonated and ternary hydroxydo complex species was probed by pH-potentiometric titration by titrating the preformed complex (at a concentration of 1.95 mM) with standardized NaOH solution. For the calculation of the logKMH-1L value, the VNaOH–pH data used were obtained in the pH range 1.68–11.85. The pH-potentiometric titrations were carried out with a Metrohm 785 DMP Titrino titration workstation with the use of a Metrohm-6.0233.100-combined electrode calibrated via a two-point calibration routine using KH-phthalate (pH = 4.005) and borax (pH = 9.177) buffers. The titrated samples were stirred with a magnetic stirrer, and N2 gas was bubbled through the solutions to avoid the effect of CO2. For the calculation of [H^+] from the measured pH values, the method proposed by Irving et al. was applied. For this, a 0.01M HCl solution was titrated with the standardized NaOH solution in the presence of 0.15 M NaCl ionic strength at 37 °C. The differences between the measured (pHread) and calculated pH (-log[H^+]) values were used to obtain the equilibrium H^+ concentration from the pHmeas values during the titrations. […] For the calculation of the equilibrium constants, the PSEQUAD program was used.\n^1H- and ^45Sc-NMR measurements (400 MHz and 97 MHz, respectively) were performed with a Bruker DRX 400 (9.4 T) spectrometer equipped with a Bruker VT-1000 thermocontroller and a BB inverse z-gradient probe (5 mm). […]"}, "[2]": {"details": "25 °C, cited from earlier work"}, "[3]": {"details": "25 °C, cited from earlier work", "remark": "listed apart in the source"}, "[4]": {"test": "pH-potentiometric determination of ligand protonation constants", "assay_type": "physicochemical", "details": "0.15 M NaCl, 37 °C", "description": "Equilibrium measurements were commenced by determining the protonation constants of the ligand, measured at 37 °C (I = 0.15 M NaCl) owing to the relevance of the chelate under in vivo conditions. The protonation constants obtained by fitting the pH-potentiometric data for the ligand DO3AM-NI are shown in Table 1 along with the literature data published for DOTA and certain DO3A-monoamides (DO3A-mono-N-buthylamide as well as that of a hypoxia-sensitive MRI probe reported by some of us a couple of years ago). Five protonation steps were observed by performing the titration in the pH range of 1.72–11.85 for the DO3AM-NI monoamide type ligand, two of which (characterized by high constants) describe the protonation of nitrogen atoms in the macrocycle (positioned trans- to each other), while the remaining log Ki^H values (much lower) likely reflect the protonation of the carboxylates. The replacement of an acetate group of DOTA by an amide moiety results in a decrease in the protonation sites of the ligand, and as a consequence the overall basicity of the ligand (expressed as the sum of the protonation constants, log β015) was as expected, predicted from the data published in literature. What is more, the formation of a weak Na^+ complex (originating from the ionic strength) competing with the first protonation process may be responsible of the lower value of the first protonation constant.\nas §1"}, "[5]": {"details": "constants at 0.1 M Me4NCl, 25 °C from Ref. 19"}},
  "note": "Where two headings read alike, the source gives them in different places.",
  "data": [
    {"smiles": "CC1(N(CC(=O)O)CC(=O)O)CN(CC(=O)O)CCN(CC(=O)O)C1", "note": "[AAZTA]", "values": [
      {"measurement": "pSc (-log[Sc(III)]free)", "setting": "[1]; constants at 0.1 M KCl, 25 °C from Ref. 20", "value": 24.72},
      {"measurement": "log K1^H", "setting": "[2]; 0.1 M KCl", "value": 11.26},
      {"measurement": "log K2^H", "setting": "[2]; 0.1 M KCl", "value": 6.62},
      {"measurement": "log K3^H", "setting": "[2]; 0.1 M KCl", "value": 3.86},
      {"measurement": "log K4^H", "setting": "[2]; 0.1 M KCl", "value": 2.45},
      {"measurement": "log K5^H", "setting": "[2]; 0.1 M KCl", "value": 1.88},
      {"measurement": "log K6^H", "setting": "[2]; 0.1 M KCl", "value": 1.46},
      {"measurement": "log KScL•H (protonation constant of Sc(III) complex)", "setting": "[3]; 0.1 M KCl", "value": 0.86},
      {"measurement": "log KSc•L (stability constant of Sc(III) complex)", "setting": "[3]; 0.1 M KCl", "value": 27.69}
    ]},
    {"smiles": "O=C(O)CN1CCN(CC(=O)O)CCN(CC(=O)NCCn2ccnc2[N+](=O)[O-])CCN(CC(=O)O)CC1", "note": "[DO3AM-NI]", "values": [
      {"measurement": "log K1^H", "setting": "[4]", "value": "8.79(1)"},
      {"measurement": "log K2^H", "setting": "[4]", "value": "8.59(1)"},
      {"measurement": "log K3^H", "setting": "[4]", "value": "4.23(1)"},
      {"measurement": "log K4^H", "setting": "[4]", "value": "2.49(1)"},
      {"measurement": "log K5^H", "setting": "[4]", "value": "1.00(4)"},
      {"measurement": "log β015 (sum of the protonation constants)", "setting": "[4]", "value": 25.10},
      {"measurement": "log KScL•OH (ternary hydroxydo species)", "setting": "[1]; 0.15 M NaCl, 37 °C", "value": "10.88(5)"},
      {"measurement": "log KSc•L (stability constant of Sc(III) complex)", "setting": "[1]; 0.15 M NaCl, 37 °C", "value": "22.36(4)"},
      {"measurement": "pSc (-log[Sc(III)]free)", "setting": "[1]; constants at 0.15 M NaCl, 37 °C", "value": 20.74}
    ]},
    {"smiles": "CCCCNC(=O)CN1CCN(CC(=O)O)CCN(CC(=O)O)CCN(CC(=O)O)CC1", "note": "[DO3AM^nBu, DO3A-mono-N-buthylamide]", "values": [
      {"measurement": "log K1^H", "setting": "[2]; 1.0 M KCl", "value": 9.78},
      {"measurement": "log K2^H", "setting": "[2]; 1.0 M KCl", "value": 9.05},
      {"measurement": "log K3^H", "setting": "[2]; 1.0 M KCl", "value": 4.53},
      {"measurement": "log K4^H", "setting": "[2]; 1.0 M KCl", "value": 3.17},
      {"measurement": "log K5^H", "setting": "[2]; 1.0 M KCl", "value": 2.19},
      {"measurement": "log β015 (sum of the protonation constants)", "setting": "[2]; 1.0 M KCl", "value": 28.72}
    ]},
    {"smiles": "O=C(O)CN1CCN(CC(=O)O)CCN(CC(=O)O)CCN(CC(=O)O)CC1", "note": "[DOTA, 1,4,7,10-tetraazacyclododecane-1,4,7,10-tetraacetic acid]", "values": [
      {"measurement": "pSc (-log[Sc(III)]free)", "setting": "[1]; [5]", "value": 23.92},
      {"measurement": "log K1^H", "setting": "[2]; 0.1 M Me4NCl", "value": 12.90},
      {"measurement": "log K2^H", "setting": "[2]; 0.1 M Me4NCl", "value": 9.72},
      {"measurement": "log K3^H", "setting": "[2]; 0.1 M Me4NCl", "value": 4.62},
      {"measurement": "log K4^H", "setting": "[2]; 0.1 M Me4NCl", "value": 4.15},
      {"measurement": "log K5^H", "setting": "[2]; 0.1 M Me4NCl", "value": 2.29},
      {"measurement": "log K6^H", "setting": "[2]; 0.1 M Me4NCl", "value": 1.34},
      {"measurement": "log β015 (sum of the protonation constants)", "setting": "[2]; 0.1 M Me4NCl", "value": 33.68},
      {"measurement": "log KScL•H (protonation constant of Sc(III) complex)", "setting": "[3]; 0.1 M Me4NCl", "value": 1.00},
      {"measurement": "log KSc•L (stability constant of Sc(III) complex)", "setting": "[3]; 0.1 M Me4NCl", "value": 30.79}
    ]},
    {"smiles": "O=C(O)CN(CCN(CC(=O)O)CC(=O)O)CCN(CC(=O)O)CC(=O)O", "note": "[DTPA]", "values": [
      {"measurement": "pSc (-log[Sc(III)]free)", "setting": "[1]; [5]", "value": 23.88},
      {"measurement": "log K1^H", "setting": "[2]; 0.1 M Me4NCl", "value": 10.65},
      {"measurement": "log K2^H", "setting": "[2]; 0.1 M Me4NCl", "value": 8.66},
      {"measurement": "log K3^H", "setting": "[2]; 0.1 M Me4NCl", "value": 4.36},
      {"measurement": "log K4^H", "setting": "[2]; 0.1 M Me4NCl", "value": 2.82},
      {"measurement": "log K5^H", "setting": "[2]; 0.1 M Me4NCl", "value": 2.03},
      {"measurement": "log K6^H", "setting": "[2]; 0.1 M Me4NCl", "value": 1.31},
      {"measurement": "log K7^H", "setting": "[2]; 0.1 M Me4NCl", "value": 1.30},
      {"measurement": "log β015 (sum of the protonation constants)", "setting": "[2]; 0.1 M Me4NCl", "value": 28.52},
      {"measurement": "log KScL•H (protonation constant of Sc(III) complex)", "setting": "[3]; 0.1 M Me4NCl", "value": 1.36},
      {"measurement": "log KScL•OH (ternary hydroxydo species)", "setting": "[3]; 0.1 M Me4NCl", "value": 12.44},
      {"measurement": "log KSc•L (stability constant of Sc(III) complex)", "setting": "[3]; 0.1 M Me4NCl", "value": 27.43}
    ]}
  ]
}
